The text below walks through data of paper PMC11395447, “Development and Optimization of a Bromothymol Blue-Based PLA2 Assay Involving POPC-Based Self-Assemblies” (International Journal of Molecular Sciences, 2024).

The test has as its target T1, PLA2-IB (Phospholipase A2 IB) (Sus scrofa, UniProt P00592).
T1 construct: gene PLA2G1B
The experiment in a line: bromothymol blue absorbance assay, Michaelis-Menten kinetics on POPC liposomes (Km). The test is classed as biochemical.

T1 sequence (P00592 23-146): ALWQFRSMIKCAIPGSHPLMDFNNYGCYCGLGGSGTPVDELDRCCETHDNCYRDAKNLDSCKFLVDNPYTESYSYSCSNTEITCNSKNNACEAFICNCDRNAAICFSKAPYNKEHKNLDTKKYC

Turning to POPC, the Km (as a rule, the concentration of substrate that gives half-maximal velocity) was 12.9 µM.
